{"source": "patent US7429460B2", "about": "“Methods of screening for inhibitors of phospholipid synthesis related to glycolipid-storage diseases” (Yeda Research and Development Co., Ltd., priority 2003, dated 2008)", "key": {"[1]": {"test_system": "CTP:phosphocholine cytidylyltransferase (CCT)", "assay": "CCT assay in hippocampal neuron homogenates with substance added to the assay mixture", "type": "biochemical, rat", "conditions": "added directly to the assay mixture", "protocol": "Neurons from individual cover slips were washed twice with ice-cold phosphate-buffered saline, and cells removed by scraping into 300 μl of buffer containing 50 mM imidazole, 2 mM EDTA, 150 mM KCl, 6 mM ADP, 0.2 mM phenylmethylsulfonylfluoride, 1 μg/ml pepstatin and 1 μg/ml leupeptin. After brief sonication, an aliquot was removed for DNA determination and 100 μl was used for the CCT assay.\nCCT was assayed as described (Weinhold P A and Feldman D A. 1992. Choline-phosphate cytidylyltransferase. Methods Enzymol. 209, 248-258), with some minor modifications. The assay was performed in a final volume of 200 μl containing 1.6 mM phosphorylcholine/0.25 μCi [^14C]methyl phosphorylcholine, 3 mM CTP, 12 mM magnesium acetate, and DOPC liposomes with or without oleic acid and GicCer or GalCer, as indicated in the figure legends. Liposomes were prepared by sonicating resuspended lipids in the assay buffer at room temperature for 3 min using a sonicator (Sonics & Materials Inc., Newtown, Conn.) fitted with a micro-tip probe set to 750 W output, using 25% of the maximal amplitude and with pulsations of 9.0 sec every 9.2 sec, which gave a translucent liposome preparation with no precipitates. The final concentration of DOPC and oleic acid in the liposomes was 500 μM each. The reaction was terminated after 25 min at 37° C. by addition of 200 μl of 150 mM phosphorylcholine in 10% trichloroacetic acid. CDP-choline was recovered by addition of 2 ml of 6% charcoal in water (w/v). After 30 min at room temperature the charcoal suspension was washed 4 times with water and centrifuged at 1,000 gav for 10 min. The aqueous supernatants were removed and CDP-choline was eluted from the charcoal with 3 washes of water/ethanol/28% NH4OH (116:188:11, v/v/v). Eluates were pooled and evaporated to dryness under N2. Phosphorylcholine and CDP-choline were added to the tubes and the samples separated by TLC using 0.9% NaCl/methanol/28% NE4OH (50:70:5, v/v/v) as the developing solvent. Metabolites were identified by iodine, and the CDP-choline spot was scraped into scintillation vials for scintillation counting.\nCCT activity was assayed in homogenates prepared from 8-day-old normal rat hippocampal neurons as described herein above. The reaction mixture comprised 0.5 mM DOPC/0.5 mM oleic acid/0.3 mM sphingolipid or lyso-sphingolipid. CCT activity with each sphingolipid or lyso-sphingolipid was measured twice. Basal CCT activity differed by ˜20% between the two experiments; however, the extent of activation or inhibition of CT activity was similar for each sphingolipid and lyso-sphingolipid."}, "rat hippocampal neurons [2]": {"test_system": "rat hippocampal neurons", "assay": "Labeling of neuronal lipids with [14C]methyl choline", "type": "cell-based", "conditions": "after 4-days of treatment, remained elevated for at least 8-days", "protocol": "Neurons were incubated for 48 h with 1 μCi [^14C]methyl choline/ml of culture medium. Subsequently, medium was removed and the neurons were washed 3-times with phosphate-buffered saline. Neurons were removed from the cover slips by scraping with a rubber policeman into 2 ml of cold methanol, and then sonicated. Part of the resulting suspension was used for lipid analysis, part for analysis of the incorporation of total radioactivity into the cells, and part for DNA analysis (see below).\nLipids were extracted by addition of chloroform to obtain a final chloroform/methanol ratio of 1:1 (v/v). The lower phase was dried under N2 and the upper phase was kept for analysis of [^14C]methyl choline incorporation into water-soluble metabolites. […] One ml of methanol and 5 ml of Optima Gold scintillation fluid (Packard, Downers Groove, Ill.) were added to each vial for scintillation counting, and radioactivity was determined in a Packard 2100 beta radiospectrometer equipped with the Transformed Spectral Index of the External Standard/Automatic Efficiency Control (tSIE/AEC) program for quench correction and counting of double radiolabeled samples."}, "rat hippocampal neurons [3]": {"test_system": "rat hippocampal neurons", "conditions": "500 μM CBE for 4- or 8-days; cited from earlier work"}, "rat hippocampal neurons [4]": {"test_system": "rat hippocampal neurons", "assay": "[14C]PC degradation and acetolysis of [14C]PC in neurons", "type": "cell-based", "conditions": "CBE-treated neurons", "protocol": "In some cases, acetolysis was performed to determine the amount of [^14C]-radioactivity that remained in the [^14C]methyl choline head group moiety of [^14C]PC after 48 h labeling with [^14C]methyl choline. [^14C]PC was removed from TLC plates by scraping, eluted from the silica using chloroform/methanol/acetic acid/water (50:39:1:10, v/v/v/v), and subjected to acetolysis. Briefly, 2 ml of acetic anhydride/acetic acid (2:3, v/v) was added to the tubes containing [^14C]PC, the mixture heated at 140° C. for 16 h, 200 μl of water added to each tube, dried under N2, and separated into aqueous and organic phases. […] [^14C]-Lipids and the [^14C]-head group polar moieties were analyzed and quantified as above.\nSince metabolic labeling with [^14C]methyl choline was performed for up to 48 h (due to the relatively low amount of neurons available), we analyzed whether the increase in [^14C]methyl choline levels was due to changes in the rate of [^14C]PC synthesis or in the rate of [^14C]PC degradation. Neurons were incubated with [^14C]methyl choline to metabolically label [^14C]PC, and the rate of [^14C]PC degradation measured. No difference in the rate of degradation between control and CBE-treated neurons was detected (FIG. 3). […]"}}}
{"smiles": "O[C@H]1[C@H](O)[C@@H](O)[C@@H]2O[C@@H]2[C@@H]1O", "note": "(racemic) [CBE, conduritol-B-epoxide]", "values": [{"measurement": "effect on CCT activity when added directly to the assay mixture", "setting": "[1]", "value": "had no effect"}, {"measurement": "[14C]methyl choline incorporation into [14C]SM and [14C]PC", "setting": "rat hippocampal neurons [2]", "value": "significant increase"}, {"measurement": "increase in the rate of incorporation of [3H]dihydrosphingosine into [3H]GlcCer", "setting": "rat hippocampal neurons [3]", "value": "4-5 fold"}, {"measurement": "rate of [14C]PC degradation versus control", "setting": "rat hippocampal neurons [4]", "value": "No difference"}]}
